For one series, the system named is Mtb cells. As to the kind of experiment: Labeling of drug-treated Mtb. It counts as cell-based, Mycobacterium tuberculosis. The settings on record: drug cocktail 3 hours before staining; FIGS. 15C and 15D.
The subject of series [1] is Mtb cells in TB-positive patient sputum samples. As to the kind of experiment: Microscopy analysis of Mtb in sputum samples / Auramine vs DMN-Tre smear test. The following applies: for detection of Mtb cells in split sputum samples: DMN-Tre 30 minutes or Auramine O standard kit protocol, FIGS. 17B-D. It counts as cell-based, Mycobacterium tuberculosis.
The next series has as its system ΔkatG mutant of Msmeg. It counts as cell-based, Mycobacterium smegmatis. The following applies: FIG. 14C.
The next series has as its system wild-type Msmeg. As to the kind of experiment: DMN-Tre labeling after isoniazid treatment, wild-type. The class given is cell-based, Mycobacterium smegmatis. The settings on record: FIG. 14C.
Series [2] in a line: Absorbance and fluorescence measurements of DMN-Tre. The class given is physicochemical. On the procedure:
One μL of 10 mM DMN-Tre in H2O was added to 1 mL of mixtures of dioxane and water at different ratios. Absorbance spectra were recorded on a Varian Cary 50 UV-Visible spectrophotometer. Fluorescence spectra were recorded on a Photon Technology International Quanta Master 4 L-format scanning spectrofluorometer equipped with an LPS-220B 75-W xenon lamp and power supply, an A-1010B lamp housing with an integrated igniter, a switchable 814 photon counting/analog photomultiplier detection unit, and an MD5020 motor driver. Measurements were made in 1 cm×0.4 cm quartz cuvettes with a total sample volume of 1 mL.

For series [3], the system named is Mycobacterium smegmatis (Msmeg). Briefly: No-wash imaging of Msmeg by DMN-Tre and 6-FITre. It counts as cell-based. The settings on record: 100 μM, 1 hour, imaged without washing; FIG. 9A.
The test system of series [4] is Corynebacterium glutamicum (Cg). As to the kind of experiment: No-wash imaging of Cg by DMN-Tre and 6-FITre. The class given is cell-based.
The subject of series [5] is Mycobacterium marinum (Mm). Briefly: No-wash imaging of M. marinum by DMN-Tre and 6-FITre. It counts as cell-based. The settings on record: 100 μM, 6 hours, imaged without washing; FIG. 9A.
The subject of series [6] is Msmeg. Briefly: No-wash labeling of Msmeg over time. The following applies: FIG. 10. It counts as cell-based, Mycobacterium smegmatis. As to the method: (§1) Msmeg or Cg cells were grown to an OD600 of 0.5 from a single colony as above. To 200 μL of culture was added 2 μL of 10 mM DMN-Tre in H2O. Aliquots were taken from this culture at the indicated time points, immediately placed under a coverslip, and imaged.

In the next series the test system is Cg. As to the kind of experiment: No-wash labeling of Cg over time. The class given is cell-based, Corynebacterium glutamicum. The following applies: FIG. 10. As to the method: as §1
The next series relates to Bacillus subtilis (Bs). Briefly: Labeling of non-mycomembrane bearing bacteria (Bs). It counts as cell-based. The following applies: 100 μM, 37° C., 2 h; FIG. 11A. On the procedure:
(§2) Lm, Bs, Ec, and Sa were grown from single colonies at 37° C. overnight. The bacteria were diluted to an OD600 of 0.4. To 1 mL aliquots of these bacteria, 10 μL of 10 mM DMN-Tre was added to reach a final concentration of 100 μM. The cells were then incubated at 37° C. for 2 h. Aliquots were taken and the cells were imaged under a coverslip. As controls, cells from the same OD600=0.4 culture, without the addition of DMN-Tre, were also imaged.

A further series concerns Escherichia coli (Ec). Briefly: Labeling of non-mycomembrane bearing bacteria (Ec). It counts as cell-based. The settings on record: 100 μM, 37° C., 2 h; FIG. 11A. On the procedure: as §2
In series [7] the test system is Listeria monocytogenes (Lm). Briefly: Labeling of non-mycomembrane bearing bacteria (Lm). It counts as cell-based. The following applies: 100 μM, 37° C., 2 h; FIG. 11A. On the procedure:
as §2

The test system of series [8] is Staphylococcus aureus (Sa). Briefly: Labeling of non-mycomembrane bearing bacteria (Sa). It counts as cell-based. The settings on record: 100 μM, 37° C., 2 h; FIG. 11A. As to the method: as §2
The subject of the next series is Msmeg expressing mCherry. Briefly: Selective labeling of Msmeg in the presence of other bacterial species. The class given is cell-based, Mycobacterium smegmatis. The settings on record: 1:10 mycobacteria/other bacteria (Bs, Ec, Lm, Sa), Hoechst dye, one hour, no wash; FIG. 11B. As to the method: Bacteria (Lm, Bs, Ec, and Sa) were grown overnight with shaking in media as noted above. The bacteria were diluted to OD600=0.5, then 500 μL of each culture were mixed together to create 2 mL of mixed bacteria. One mL of Msmeg expressing mCherry was grown from a single colony overnight to OD600 of 0.5. Both cultures were pelleted by centrifugation (3 min, 3,300×g) and resuspended in an identical volume of LB medium. To 540 μL of mix, 60 μL of Msmeg was added. Lastly, this final mixture of bacteria containing Msmeg and the four other non-mycomembrane bearing bacterial species was split into two 300 μL aliquots. To each group, 0.3 μL of 2 mg/mL Hoechst DNA stain (Thermo Fisher Scientific, 62249) was added to stain all the bacteria. To one of the two aliquots, 3 μL of 10 mM DMN-Tre were added, while no DMN-Tre was added to the other portion. The two aliquots were incubated with shaking at 37° C. for 1 h before a sample was taken out and imaged without washing.

Series [9] has as its system Msmeg. As to the kind of experiment: Flow cytometry of metabolically labeled Msmeg. It counts as cell-based, Mycobacterium smegmatis. In general terms: A flow cytometer gives signals particle by particle.
Another series relates to M. smegmatis. As to the kind of experiment: Trehalose competition of DMN-Tre labeling in M. smegmatis. The following applies: 1 hour, FIG. 12D. The class given is cell-based, Mycobacterium smegmatis. As to the method: Then, the bacteria were divided into 100 μL aliquots. To these aliquots was added 1 μL of 10 mM DMN-Tre and 1 μL of 0, 10 or 100 mM trehalose in water.
The test system of series [10] is Msmeg trehalose transporter mutants. It counts as cell-based, Mycobacterium smegmatis. The settings on record: panel of trehalose transporter mutants.
The next series concerns Msmeg deficient in Ag85A. Briefly: DMN-Tre labeling of Msmeg deficient in Ag85A. The settings on record: FIG. 12F. The class given is cell-based, Mycobacterium smegmatis.
For the next series, the system named is Mtb (H37Rv). Briefly: Axenic MTB culture time-course experiment. It counts as cell-based, Mycobacterium tuberculosis.
The next series in a line: Stability of DMN-Tre. It counts as physicochemical. The settings on record: bench or shipping containers at room temperature; aqueous solution at 37° C.
In the next series the test system is heat-killed Msmeg cells. Briefly: DMN-Tre labeling of heat-killed Msmeg. The following applies: FIGS. 13A and 13B.
[11] abbreviates: 100 μM, 2 hours, imaged without washing, FIG. 9A.
Setting [12] is: 100 μM, exponential growth phase, first time point.

SMILES strings stand for the structures.

Data on five molecules can be found in patent publication US11884956B2, “Methods for detecting mycobacteria with solvatochromic dye conjugates” (priority 2016, dated 2024).

For `CN(C)c1ccc(C(=N)c2ccc(N(C)C)cc2)cc1.Cl` [Auramine O, reference compound], the “labeling after prior drug cocktail treatment” value in the series with Mtb cells is on record as “unaffected”. Moreover, in series [1], the “detection of Mtb cells in split sputum samples” value is on record as “detected”.
As for `NNC(=O)c1ccncc1` [isoniazid], the “effect of isoniazid treatment on DMN-Tre labeling” value in the series with ΔkatG mutant of Msmeg is on record as “unaffected”; in the series on wild-type Msmeg, “not wild-type Msmeg, was unaffected”.
Consider `CN(C)c1ccc2c3c(cccc13)C(=O)N(C[C@H]1O[C@H](O[C@H]3O[C@H](CO)[C@@H](O)[C@H](O)[C@H]3O)[C@H](O)[C@@H](O)[C@@H]1O)C2=O` [DMN-Tre, 4-N,N-dimethylamino-1,8-naphthalimide-conjugated trehalose], for which, in series [2], the “enhancement in fluorescence intensity when dissolved in organic solvent versus water” value is roughly 700 fold. For the same molecule, the “background fluorescence of free probe in surrounding solution” value in series [3], in series [4] (setting [11]) and in series [5] was “no discernible background fluorescence” throughout. The “fluorescence labeling, no-wash imaging” value in series [3], in series [4] (setting [11]) and in series [5] was “Bright fluorescence labeling” throughout. In addition, the “fluorescence labeling in the selectivity experiment” value in series [4] (same experiment as the non-mycobacterial strains, FIG. 11A) was “labeled brightly”. For the same molecule, the “time point at which labeling was already visible” value in the series with Msmeg [6] (setting [12]) is listed as no more than 5 min; with Cg (setting [12]), no more than 3 min. In addition, the “time by which cells were uniformly labeled” value in the series with Msmeg [6] was no more than 1 h. Also, the entries for the “labeling pattern at earliest time point” value in the series on Msmeg [6] (earliest time point) and with Cg (earliest time point) were “fluorescence only at the polar regions” and “even cell surface labeling”, respectively. Further, the “fluorescence labeling without washing” value (with Bacillus subtilis (Bs); in the series on Escherichia coli (Ec); in series [7]; in [8]) was “none of the non-mycobacterial strains show any detectable fluorescence labeling” each time. Moreover, the “labeling in mixed bacterial culture” value in the series on Msmeg expressing mCherry is reported as “Bright, specific, DMN-Tre labeling of only Msmeg cells”. The “fluorescence signal of labeled cells by filter set” value in the series on Msmeg [9] (100 μM DMN-Tre, 1 h, excited at wavelengths closer to 400 nm (405 nm vs 488 nm excitation), FIG. 9B) is given as “higher fluorescence signal over control samples”. In the series on Msmeg [9] (flow cytometry, FIG. 12A), the “time to significant fluorescence over background” value is given as no more than 20 min. Besides, the cells labeled is listed as greater than 70% in the series with Msmeg [9] (within 30 minutes, flow cytometry, FIG. 12B) and greater than 65% in the series on Mtb (H37Rv) (liquid cultures, within 30 minutes, FIG. 15B). The “DMN-Tre labeling in the presence of excess trehalose” value in the series on M. smegmatis is on record as “reduced”. The “DMN-Tre incorporation versus wild-type” value in series [10] is recorded as “comparable to wild-type”. In addition, the “DMN-Tre labeling versus wild-type” value with Msmeg deficient in Ag85A is “reduced labeling compared to wild-type”. Further, the “labeling of liquid cultures” value in the series with Mtb (H37Rv) (FIG. 15A) is given as “visibly labeled”. In the series with Mtb (H37Rv) (overnight (˜16 h), FIG. 15B), the labeling over time entry is “continued to intensify overnight”. In addition, in the series on Mtb cells, the “labeling after prior drug cocktail treatment” value is “inhibited”. Besides, in series [1], the “time to detection of mycobacteria in TB patient sputum samples” value is reported as “under an hour”. Besides, the “fluorescent Mtb cells in sputum samples” value in series [1] (16 treatment-naïve TB-positive patients, 2-hour incubation, FIGS. 17A and D) was “readily visible in all samples”. Further, in [1], the “detection of Mtb cells in split sputum samples” value was “detected”. Also, the “Mtb cells detected in sputum compared with Auramine O” value in [1] (visibly stained cells over 8 fields of view per sample, 16 sputum samples, FIG. 17C) is “performed similarly to Auramine O”. In addition, the stability entry in “Stability of DMN-Tre” was “very stable on the bench or in shipping containers for weeks at room temperature, and even in aqueous solution at 37 °C”. Moreover, in the series with heat-killed Msmeg cells, the “labeling after heat killing” value was “abrogated”.
Regarding `COC1OC(CN2C(=O)c3cccc4c(N(C)C)ccc(c34)C2=O)C(O)C(O)C1O` (stereo not drawn) [DMN-Glc, DMN-glucose], in the series on Msmeg [9] (FIG. 12C), the “labeling of Msmeg” value is “did not label Msmeg”.
With `O=C(O)c1cc(NC(=S)NC[C@H]2O[C@H](O[C@H]3O[C@H](CO)[C@@H](O)[C@H](O)[C@H]3O)[C@H](O)[C@@H](O)[C@@H]2O)ccc1-c1c2ccc(=O)cc-2oc2cc(O)ccc12` [6-FITre, 6-fluorescein-trehalose, reference compound], the “background fluorescence of free probe in surrounding solution” value in series [3], in [4] (setting [11]) and in series [5] was “obscured by fluorescence of the probe in the surrounding solution” each time.
